# Values of other authors as cited in US12070440B2, “Topical formulations of nitroglycerin” (PERMEATUS, INC., priority 2022, dated 2024).
# Read-outs that look alike come from different tables or passages of the source.
smiles,measurement,setting,value
"O=[N+]([O-])OCC(CO[N+](=O)[O-])O[N+](=O)[O-] [nitroglycerin, 1,2,3-trinitroxypropane]","decomposition by denitration to 1,2-GDN",acidic environment (0.1N HCl),faster
same,"decomposition by denitration to 1,2-GDN",pH 7.4,slow
same,"decomposition by denitration to 1,2-GDN",pH values of 11 and above,rapid
